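Following 48 hours of exposure in 96-well plates, responses at five concentrations were used to interpolate endpoints linearly. Definition used: TGI = concentration required for complete inhibition of growth.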
Key:
Assay in all cases: NCI tumour cell line growth inhibition, 48 h
[1] = tested on: HS 578T breast
[2] = tested on: MDA-MB-231 breast
[3] = tested on: NCI-H522 lung
[4] = tested on: RXF 393 renal
[5] = tested on: NCI-H23 lung
[6] = tested on: T-47D breast
[7] = tested on: MCF7 breast
[8] = tested on: A549 NSCLC
[9] = tested on: OVCAR-5 ovarian
[10] = tested on: A498 renal
[11] = tested on: OVCAR-8 ovarian
[12] = tested on: TK-10 renal
[13] = tested on: NCI/ADR-RES ovarian
[14] = tested on: MDA-N
[15] = tested on: MALME-3M melanoma
[16] = tested on: SK-MEL-5 melanoma
[17] = tested on: COLO 205 colon
[18] = tested on: 786-0 renal
[19] = tested on: K-562 leukemia
[20] = tested on: HOP-62 NSCLC
[21] = tested on: UO-31 renal
[22] = tested on: SNB-75 CNS
[23] = tested on: MDA-MB-435
[24] = tested on: BT-549 breast
[25] = tested on: SN12C renal
[26] = tested on: SF-268 CNS
[27] = tested on: U251 CNS
[28] = tested on: SNB-19 CNS
[29] = tested on: KM12 colon
[30] = tested on: UACC-62 melanoma
[31] = tested on: CAKI-1 renal
[32] = tested on: HCC-2998 colon
[33] = tested on: NCI-H460 lung
[34] = tested on: RPMI-8226 leukemia
[35] = tested on: HT29 colon
[36] = tested on: SW-620 colon
[37] = tested on: M14 melanoma
[38] = tested on: CCRF-CEM leukemia
[39] = tested on: SR leukemia
[40] = tested on: HCT-15 colon
[41] = tested on: HOP-92 NSCLC
[42] = tested on: SK-MEL-2 melanoma
[43] = tested on: OVCAR-4 ovarian
[44] = tested on: IGROV1 ovarian
[45] = tested on: SK-OV-3 ovarian
[46] = tested on: PC-3 prostate
[47] = tested on: SF-539 CNS
[48] = tested on: MOLT-4 leukemia
[49] = tested on: HCT-116 colon
[50] = tested on: NCI-H226 lung
[51] = tested on: SF-295 CNS
[52] = tested on: ACHN renal
[53] = tested on: SK-MEL-28 melanoma
[54] = tested on: UACC-257 melanoma
[55] = tested on: DU-145 prostate

Cc1ccc(NC(=S)NNC(=O)c2cc(-c3ccccc3)nc3ccccc23)cc1C
TGI [1]: > 100 µM
TGI [2]: 57.7 µM
TGI [3]: 50.8 µM
TGI [4]: 55.5 µM
TGI [5]: 48.2 µM
TGI [6]: 8.41 µM
TGI [7]: 47.8 µM
TGI [8]: 43.7 µM
TGI [9]: 76.9 µM
TGI [10]: 34.2 µM
TGI [11]: 44.5 µM
TGI [12]: 63.1 µM
TGI [13]: 49.1 µM
TGI [14]: 40 µM
TGI [15]: 43.6 µM
TGI [16]: 34.4 µM
TGI [17]: 34.2 µM
TGI [18]: 33.7 µM
TGI [19]: 79.5 µM
TGI [20]: 54.8 µM
TGI [21]: 36.3 µM
TGI [22]: 56.5 µM
TGI [23]: 59.5 µM
TGI [24]: 44.2 µM
TGI [25]: 38.1 µM
TGI [26]: > 100 µM
TGI [27]: 49.4 µM
TGI [28]: 93.2 µM
TGI [29]: 80 µM
TGI [30]: 37 µM
TGI [31]: > 100 µM
TGI [32]: 35.2 µM
TGI [33]: 38.7 µM
TGI [34]: 59.2 µM
TGI [35]: 49.2 µM
TGI [36]: > 100 µM
TGI [37]: 33.8 µM
TGI [38]: 52 µM
TGI [39]: 36.4 µM
TGI [40]: 60.5 µM
TGI [41]: 48.8 µM
TGI [42]: 37.3 µM
TGI [43]: 58.2 µM
TGI [44]: 63.6 µM
TGI [45]: 32.9 µM
TGI [46]: 42.9 µM
TGI [47]: 40.3 µM
TGI [48]: 53.3 µM
TGI [49]: 36.9 µM
TGI [50]: 90.1 µM
TGI [51]: 29.6 µM
TGI [52]: 67.6 µM
TGI [53]: 78.8 µM
TGI [54]: 60.1 µM
TGI [55]: 45.4 µM
